Assay results taken from patent publication US20190364896A1, “SYNERGISTIC WEED CONTROL FROM APPLICATIONS OF PYRIDINE CARBOXYLIC ACID HERBICIDES AND ALS INHIBITORS” (Dow AgroSciences LLC, priority 2014, published 2019).
Like-named read-outs stand apart in the source and are kept apart here.

Columns and labels:
Experiment in all cases: Postemergence herbicidal activity, greenhouse trial (visual injury 0-100%)
Format in all cases: in vivo
[1] = test system: wild buckwheat (Polygonum convolvulus, POLCO); details: Fallopia convolvulus, post-emergence, read-out: % visual injury Obs
Protocol: (§1) Seeds of the desired test plant species were planted in Sun Gro MetroMix® 306 planting mixture, which typically has a pH of 6.0 to 6.8 and an organic matter content of about 30 percent, in plastic pots with a surface area of 103.2 square centimeters (cm^2). […] The plants were grown for 7-36 days (d) in a greenhouse with an approximate 14-hour (h) photoperiod which was maintained at about 23° C. during the day and 22° C. during the night. Nutrients and water were added on a regular basis and supplemental lighting was provided with overhead metal halide 1000-Watt lamps as necessary. The plants were employed for testing when they reached the second or third true leaf stage.
(§2) Weighed amounts of technical or formulated material (emulsifiable concentrate (EC) or soluble concentrate (SL)) were dissolved in a volume of 97:3 volume per volume (v/v) acetone/dimethyl sulfoxide (DMSO) to stock solutions. […] The concentrated stock solutions were diluted with an aqueous mixture of 1.5% v/v of Agri-dex crop oil concentrate to provide the appropriate application rates. Compound requirements are based upon a 12 milliliter (mL) application volume at a rate of 187 liters per hectare (L/ha). Spray solutions of the experimental compound mixtures were prepared by adding the stock solutions to the appropriate amount of dilution solution to form a 12 mL spray solution in two-way combinations. Formulated compounds were applied to the plant material with an overhead Mandel track sprayer equipped with 8002E nozzles calibrated to deliver 187 L/ha over an application area of 0.503 square meters (m^2) at a spray height of 18 inches (43 centimeters (cm)) above average plant canopy. Control plants were sprayed in the same manner with the solvent blank. Application rates for component (a) are in g ae/ha, and application rates for component (b) are in g ai/ha.
(§3) The treated plants and control plants were placed in a greenhouse as described above and watered by sub-irrigation to prevent wash-off of the test compounds. After 20-22 d, the condition of the test plants as compared with that of the control plants was determined visually and scored on a scale of 0 to 100 percent where 0 corresponds to no injury and 100 corresponds to complete kill. Colby's equation was used to determine the herbicidal effects expected from the mixtures. […]
(§4) Weighed amounts of technical material were dissolved in a volume of 97:3 volume per volume (v/v) acetone/dimethyl sulfoxide (DMSO) to stock solutions. […] The concentrated stock solutions were diluted with an aqueous mixture of 1.5% v/v of Agri-dex crop oil concentrate to provide the appropriate application rates. Compound requirements are based upon a 12 milliliter (mL) application volume at a rate of 187 liters per hectare (L/ha).

[2] = test system: kochia (Kochia scoparia, KCHSC); details: Bassia scoparia, post-emergence, read-out: % visual injury Obs
Protocol: as §1, §2, §3, §4

[3] = test system: thistle (Cirsium arvense, CIRAR); details: Cirsium arvense, post-emergence, read-out: % visual injury Obs
Protocol: as §1, §2, §3, §4

[4] = test system: nutsedge (Cyperus esculentus, CYPES); details: Cyperus, post-emergence, read-out: % visual injury Obs
Protocol: as §1
as §2, with “technical” for “technical or formulated”, “material” for “material (emulsifiable concentrate (EC) or soluble concentrate (SL))”
as §3, §2

[5] = test system: barnyardgrass (Echinochloa crus-galli, ECHCG); details: Echinochloa crus-galli, post-emergence, 7.5 g ai/ha; read-out: % visual injury Obs
Protocol: as §1, §2
(§5) The treated plants and control plants were placed in a greenhouse as described above and watered by sub-irrigation to prevent wash-off of the test compounds. After 20-22 d, the condition of the test plants as compared with that of the control plants was determined visually and scored on a scale of 0 to 100 percent where 0 corresponds to no injury and 100 corresponds to complete kill. The condition of the test plants was compared with that of the control plants as determined visually and scored on a scale of 0 to 100 percent, where 0 corresponds to no injury and 100 corresponds to complete kill. Colby's equation was used to determine the herbicidal effects expected from the mixtures.
(§6) Compound 1 was formulated as an EC and was combined with florasulam, cloransulam, diclosulam, flumetsulam, penoxsulam, or pyroxsulam. Compound 2 was formulated as an EC and was combined with florasulam or pyroxsulam. The mixtures were applied to winter wheat (TRZAW), common rice (ORYSA), maize (ZEAMX), and the phytotoxicity of the herbicidal compositions was measured. In addition, the efficacy of the herbicidal compositions on blackgrass (Alopecurus myosuroides, ALOMY), pigweed (Amaranthus retrollexus, AMARE), wild oat (Avena fatua, AVEFA), common lambsquarters (Chenopodium album L., CHEAL), thistle (Cirsium arvense CIRAR), nutsedge (Cyperus esculentus, CYPES), barnyardgrass (Echinochloa crus-galli, ECHCG), poinsettia (Euphorbia heterophylla, EPHHL), ivyleaf morning-glory (Ipomoea hederacea, IPOHE), kochia (Kochia scoparia, KCHSC), wild buckwheat (Polygonum convolvulus, POLCO), grain sorghum (Sorghum vulgare, SORVU), chickweed (Stellaria media, STEME), wild pansy (Viola tricolor, VIOTR), was evaluated.
as §4, with “(L/ha). […]” for “(L/ha).”

[6] = test system: ivyleaf morning-glory (Ipomoea hederacea, IPOHE); details: Ipomoea hederacea, post-emergence, read-out: % visual injury Obs
Protocol: as §1, §2, §5, §6
as §4, with “(L/ha). […]” for “(L/ha).”

[7] = test system: wild pansy (Viola tricolor, VIOTR); details: Viola tricolor, post-emergence, read-out: % visual injury Obs
Protocol: as §1, §2, §5
as §6, with “Compound 1 was formulated as an EC and was combined with florasulam, cloransulam, diclosulam, flumetsulam, penoxsulam, or pyroxsulam.” left out
as §4

[8] = test system: poinsettia (Euphorbia heterophylla, EPHHL); details: Euphorbia heterophylla, post-emergence, read-out: % visual injury Obs
Protocol: as §1
as §2, with “technical” for “technical or formulated”, “material” for “material (emulsifiable concentrate (EC) or soluble concentrate (SL))”
as §3, §2

[9] = test system: grain sorghum (Sorghum vulgare, SORVU)
Protocol: as §1, §2, §5, §6
as §4, with “(L/ha). […]” for “(L/ha).”

[10] = test system: chickweed (Stellaria media, STEME); details: Stellaria media, post-emergence, STEME; azimsulfuron 6.25 g ai/ha; read-out: % visual injury Obs
Protocol: as §1, §2, §5, §6
as §4, with “(L/ha). […]” for “(L/ha).”

[11] = test system: common lambsquarters (Chenopodium album L., CHEAL); details: Chenopodium album, post-emergence, read-out: % visual injury Obs
Protocol: as §1, §2, §5, §6
as §4, with “(L/ha). […]” for “(L/ha).”

[12] = test system: pigweed (Amaranthus retroflexus, AMARE); details: Amaranthus retroflexus, post-emergence, read-out: % visual injury Obs
Protocol: as §1, §2, §3, §4

[13] = test system: blackgrass (Alopecurus myosuroides, ALOMY)
Protocol: as §1, §2, §5, §6
as §4, with “(L/ha). […]” for “(L/ha).”

[14] = test system: wild oat (Avena fatua, AVEFA)
Protocol: as §1, §2, §5, §6
as §4, with “(L/ha). […]” for “(L/ha).”

`COc1cc(OC)nc(NC(=O)NS(=O)(=O)N(C)S(C)(=O)=O)n1` [Amidosulfuron, amidosulfuron] gave a pest or weed control at […] ([1]; 7.5 g ai/ha) of 85%, a pest or weed control at […] ([2]; 7.5 g ai/ha) of 10% and a pest or weed control at […] ([3]; 7.5 g ai/ha) of 20%. The pest or weed control at […] ([4]; 7.5 g ai/ha) was 20%, the pest or weed control at […] [5] was 0% and the pest or weed control at […] ([6]; 7.5 g ai/ha) was 35%.
Compound `COc1cc(OC)nc(NC(=O)NS(=O)(=O)c2c(-c3nnn(C)n3)cnn2C)n1` [Azimsulfuron, azimsulfuron] has a pest or weed control ([2]; KCHSC, azimsulfuron 6.25 g ai/ha) of 0%, a pest or weed control ([7]; VIOTR, azimsulfuron 6.25 g ai/ha) of 60% and a pest or weed control ([8]; EPHHL, azimsulfuron 6.25 g ai/ha) of 10%. The “% visual injury Obs” value ([9]; SORVU, azimsulfuron 6.25 g ai/ha) was 65%, the pest or weed control [10] was 20% and the pest or weed control ([6]; IPOHE, azimsulfuron 6.25 g ai/ha) was 93%. For the same compound, the pest or weed control ([11]; CHEAL, azimsulfuron 6.25 g ai/ha) was 10%.
`Nc1c(F)c(-c2ccc3cc[nH]c3c2F)nc(C(=O)OCc2ccccc2)c1Cl` [Compound 2] gave a pest or weed control at 5 g/ha ([12]; 5 g ae/ha) of 88%, a pest or weed control at 10 g/ha ([12]; 10 g ae/ha) of 100% and a pest or weed control at 5 g/ha ([8]; 5 g ae/ha) of 35%. It also gave a pest or weed control at 10 g/ha ([8]; 10 g ae/ha) of 75%, a pest or weed control at 5 g/ha ([4]; 5 g ae/ha) of 5% and a pest or weed control at 10 g/ha ([4]; 10 g ae/ha) of 10%. For the same compound, the “% visual injury Obs” value ([13]; 5 g ae/ha) was 0%, the “% visual injury Obs” value ([13]; 10 g ae/ha) was 0% and the “% visual injury Obs” value ([14]; 5 g ae/ha) was 0%. For the same compound, the “% visual injury Obs” value ([14]; 10 g ae/ha) was 0%, the pest or weed control at 5 g/ha ([6]; 5 g ae/ha) was 10% and the pest or weed control at 10 g/ha ([6]; 10 g ae/ha) was 20%. It also gave a pest or weed control at 5 g/ha ([11]; 5 g ae/ha) of 88% and a pest or weed control at 10 g/ha ([11]; 10 g ae/ha) of 99%.
`Cc1ccn2nc(S(=O)(=O)Nc3c(F)cccc3F)nc2n1` [Flumetsulam, flumetsulam] was tested, and the pest or weed control ([2]; 4.375 g ai/ha) was 60%, the pest or weed control ([3]; 4.375 g ai/ha) was 10% and the pest or weed control ([7]; 4.375 g ai/ha) was 70%. For the same compound, the pest or weed control ([8]; 4.375 g ai/ha) was 30%, the pest or weed control ([4]; 4.375 g ai/ha) was 10% and the “% visual injury Obs” value ([9]; 4.375 g ai/ha) was 60%.
With `COc1cc(OC)nc(NC(=O)NS(=O)(=O)c2cc(NC=O)ccc2C(=O)N(C)C)n1` [Foramsulfuron, foramsulfuron] the pest or weed control at 10 g/ha ([12]; AMARE, foramsulfuron 10 g ai/ha) was 85% and the “% visual injury Obs” value ([13]; ALOMY, foramsulfuron 10 g ai/ha) was 93%.
With `COC(=O)c1ccc(CNS(C)(=O)=O)cc1S(=O)(=O)NC(=O)Nc1nc(OC)cc(OC)n1` [Mesosulfuron, mesosulfuron] the pest or weed control at 3 g/ha ([1]; POLCO, mesosulfuron 3 g ai/ha) was 20%, the pest or weed control at 3 g/ha ([2]; KCHSC, mesosulfuron 3 g ai/ha) was 10% and the “% visual injury Obs” value ([9]; SORVU, mesosulfuron 3 g ai/ha) was 97%.
Work on `COc1cnc(OC)n2nc(NS(=O)(=O)c3c(OCC(F)F)cccc3C(F)(F)F)nc12` [Penoxsulam, penoxsulam] yielded a pest or weed control at 5 g/ha ([2]; 5 g ai/ha) of 10%, a pest or weed control at 5 g/ha ([8]; 5 g ai/ha) of 60% and a pest or weed control at 5 g/ha ([4]; 5 g ai/ha) of 70%. For the same compound, the “% visual injury Obs” value ([9]; 5 g ai/ha) was 0% and the pest or weed control at 5 g/ha ([6]; 5 g ai/ha) was 90%.
